Measured values: patent US6331555A, “Treatment of platelet derived growth factor related disorders such as cancers” (priority 1999, dated 2001)
Entries after “also recorded” stand apart in the source; their conditions may differ.

Legend:
PDGF-R = assay: PDGF-BB-stimulated PDGF-R autophosphorylation, C6 cells, western blot; assay type: cell-based, rat; parameters: PDGF stimulated receptor phosphorylation: dose or concentration left out as unconfirmed
Method: For western blotting, cells were plated in 2 mL growth medium into 6-well dishes (500,000 cells per well) and allowed to attach overnight. The medium was replaced with 2 mL MCDB 105 (UCSF Cell Culture Facility) supplemented with 1% FBS. The plates were then incubated overnight at 37° C., ambient CO2. […] After a 7 min incubation at room temperature with ligand, the plates were put on ice and washed three times with 1 mL ice-cold PBS plus 1 mM orthovanadate. Lysis was achieved by pipetting cells in 0.5 mL of buffer containing 50 mM Tris, pH 7.4, 10% glycerol, 1% NP-40, 2 mM EDTA, 1 mM sodium vanadate (Na3 VO4), 10 mM pyrophosphate, 1 mM PMSF, 10 mg/mL aprotinin, 10 mg/mL leupeptin. […] The integrity of the protein-to-membrane transfer was determined by staining with 1% Ponceau S in 5% acetic acid for 5 min. […] Phosphotyresine was detected by incubating the membrane (1 hr at room temperature) with an anti-phosphotyosine antiserum diluted in blocking buffer at 1:3000. […]
Proteins were then separated by SDS-polyacrylamide gel electrophoresis (PAGE). […] The level of phosphorylated tyrosine was determined by quantitating the amount of bound anti-phosphotyrosine. Quantitation was carried out by peak area integration using a Molecular Dynamics Computing Densitometer (Model 300S), and Image Quant v3.0 software (Molecule Dynamics). […]

PC-3 prostate tumor = assay: SC xenograft in mice; assay type: in vivo, human; details: SCID
Method: (§1) Cell lines were grown in appropriate medium (see Appendix 1). Cells were harvested at or near confluency with 0.05% Trypsin-EDTA and pelleted at 450×g for 10 min. Pellets were resuspended in sterile PBS or media (without FBS) to a particular concentration and the cells were implanted into the hindflank of mice. Tumor growth was measured over 3 to 6 weeks using venier calipers. Tumor volumes were calculated as a product of length×width×height unless otherwise indicated. P values were calculated using the Students' t-test.
(§2) The mice were treated for three week.

A375 melanoma = assay: SC xenograft in mice; assay type: in vivo, human
Method: as §1, §2

[1] = test system: epidermal growth factor (EGF) receptor; details: listed as leflunomide; cited from earlier work
EGF receptor = EGF receptor autophosphorylation, T98G glioblastoma cells; assay type: cell-based, human; details: 200, 500; 50 ng/ml EGF
Method: Proteins were then separated by SDS-polyacrylamide gel electrophoresis (PAGE). Proteins containing phosphorylated tyrosine were identified by western blotting with an anti-phosphotyrosine antibody. The level of phosphorylated tyrosine was determined by quantitating the amount of bound anti-phosphotyrosine. Quantitation was carried out by peak area integration using a Molecular Dynamics Computing Densitometer (Model 300S), and Image Quant v3.0 software (Molecule Dynamics). Data were expressed as relative peak.intensity (phosphorylation of a receptor divided by the total amount of phosphorylated tyrosine).
T98G cells were plated in MCDB105 medium containing 2% FBS and incubated for 24 hours at 37° C. […] The cells were then treated with ligand for 10 minutes (20 ng/ml PDGF-BB or 50 ng/ml EGF). The cells were lysed and the level of phosphorylated receptor was quantitated as described in Example 1.

in vivo = assay: in vivo; parameters: species or system rat
Method: Plasma was prepared and frozen in liquid nitrogen. Tissues and organs were resected and immediately frozen in liquid nitrogen. After the addition of an internal standard, plasma samples were acidified with HCl and extracted with acetonitrile. The acetonitrile fraction was evaporated to dryness in a vacuum centrifuge with heating and redissolved in methanol. Tissue and organ samples were homogenized according to the weight ratio of 1:5 (w:v) in 50 mM Tris-HCl, pH 7.4, at 20,000 rev/min, using a tissue homogenizer (Brinkmann Polytron Model PT3000). After the addition of an internal standard, the homogenate was acidified with HCl and then extracted with acetonitrile. The acetonitrile fraction was then extracted with an equal volume of diethyl ether. The ether fraction was evaporated to dryness in a vacuum centrifuge with heating and redissolved in methanol.
Samples for HPLC analysis were injected onto a Hewlett Packard Hypersil 5-μm C18 cartridge column (100×4.6 mm). The mobile phase was methanol:35 mM KH2 PO4 (pH 4.5) 55:45 containing 4 mM triethylamine. The flow rate was 1.2 mL/min. The compounds were monitored by UV absorption at 254 nm using a Hewlett-Packard diode-array detector (HP Model 1090). Plasma and tissue concentrations were determined from standard curves using peak area for quantitation. […] The internal standard used was 5-methyl-pyrazole-4-carboxylic acid-(4-trifluoromethyl)-anilide.
Table XXII. […] Plasma and brain samples were prepared and analyzed by HPLC as described in Appendix 6. All results were calculated by the method of internal standardization. NT= not tested, ND= not detected.

Cc1oncc1C(=O)Nc1ccc(C(F)(F)F)cc1 [Compound A10, 5-methylisoxazole-4 carboxylic acid-(4-trifluromethyl)-anilide]
reduction of PDGF-R phosphorylation (PDGF-R; 200 mM A10, 20 ng/ml PDGF-BB): reduced PDGF-R phosphorylation below that occurring in the absence of PDGF-BB stimulation
PDGF stimulated receptor phosphorylation (PDGF-R; increasing concentrations (50, 100)): reduced PDGF stimulated receptor phosphorylation
tumor growth inhibition (PC-3 prostate tumor; 12 mg/kg/day (PBTE:D5W), five days per week, from day 15, after three weeks): about 50%
% Inhibition (PC-3 prostate tumor; 12 mg/kg/day, day 36, treatment from day 15): 47%
tumor growth inhibition (A375 melanoma; 15 mg/kg/day, five days per week, from day 9, after three weeks): about 40%
% Inhibition (A375 melanoma; SCID, 15 mg/kg/day, day 31, treatment from day 9): 35%
% Inhibition (A375 melanoma; nu/nu, 20 mg/kg/day, day 31): 53%
autophosphorylation of the EGF receptor [1]: dose dependently, inhibited; also recorded: inhibit EGF induced EGF receptor autophosphorylation
EGF stimulated autophosphorylation of EGF-R (EGF receptor): little if any effect on the ability of EGF to stimulate autophosphorylation of EGF-R
time detected in plasma (in vivo; IP A10 80 mg/kg single dose): up to 8 hr
time by which A10 converted to B11 (in vivo; IP A10 80 mg/kg, first time point analyzed): ≤ 2 h
Cmax (in vivo; rat, plasma, ip, 80 mg/kg): 5000 ng/mL
